We go through eleven compounds from ChEMBL document CHEMBL1201862, “PubChem BioAssay data set” (2004).

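Test compounds were applied to cells in 96-well plates for 48 hours at 5 doses. Here, GI50 denotes the concentration required for 50% inhibition of growth.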 The source made the active and inactive calls. Rule as the data show it: active = GI50 up to about 1.1 µM and inactive = higher.

Some test systems named below: A549; BT-549; CCRF-CEM; EKVX; HCC 2998; HCT-15; Hs-578T; MCF7; MDA-MB-231; MOLT-4; NCI-H226; NCI-H460; RXF 393; SF-268; SF-539; SN12C; SW-620; T47D.
Holding throughout (test): NCI tumour cell line growth inhibition, 48 h

`Cc1c2oc3c(C)cnc(C(=O)NC4C(=O)NC(C(C)C)C(=O)N5CCCC5C(=O)N(C)CC(=O)N(C)C(C(C)C)C(=O)OC4C)c3nc-2c(C(=O)NC2C(=O)NC(C(C)C)C(=O)N3CCCC3C(=O)N(C)CC(=O)N(C)C(C(C)C)C(=O)OC2C)c(N)c1=O` (configuration not stated): the GI50 with A549 is 3.37 µM (inactive); with BT-549, 7.62 µM (inactive); in the test with CCRF-CEM, 0.121 µM (active); in the test on EKVX, 15.4 µM (inactive); in the test with HCC 2998, 2.67 µM (inactive); with HCT-15, 21 µM. The GI50 in the test on Hs-578T was 1.88 µM (inactive); with MCF7, 0.805 µM (active); with MDA-MB-231 it was 9.77 µM (inactive); in the test with MOLT-4 it was 0.138 µM (active); in the test on NCI-H226 it was 2.65 µM (inactive); with NCI-H460, 1.03 µM (active). Further, the GI50 in the test with RXF 393 was 1.12 µM (active); in the test with SF-268 it was 0.789 µM (active); with SF-539, 1.42 µM (inactive); with SN12C, 1.36 µM (inactive); in the test with SW-620 it was 0.346 µM (active); in the test on T47D it was 1.07 µM (active).

For `Cn1ccnc1Sc1ccc(/C=N/NC(=O)c2ccccc2[N+](=O)[O-])cc1[N+](=O)[O-]`, the GI50 in the test with A549 is > 100 µM (inactive); with BT-549, 83.9 µM (inactive); in the test on CCRF-CEM, 42.7 µM (inactive); in the test on EKVX, 40.9 µM (inactive); in the test on HCC 2998, 36.7 µM (inactive); in the test on HCT-15, 45.7 µM. For the same compound, the GI50 with Hs-578T is > 100 µM (inactive); in the test on MCF7, 59.8 µM (inactive); in the test on MDA-MB-231 it was 23.1 µM (inactive); in the test with MOLT-4 it was 41.2 µM (inactive); in the test on NCI-H226, > 100 µM (inactive); in the test on NCI-H460, 46.5 µM (inactive). The GI50 in the test on RXF 393 was 52.5 µM (inactive); in the test with SF-268, > 100 µM (inactive); with SF-539, > 100 µM (inactive); with SN12C, 60.3 µM (inactive); in the test with SW-620, 98.2 µM (inactive); in the test on T47D, 40.6 µM (inactive).

`O=c1ssc(Cl)c1Cl`: the GI50 with A549 is > 10 µM (inactive); in the test with BT-549, > 10 µM (inactive); with CCRF-CEM, 1.63 µM (inactive); in the test on EKVX, > 10 µM (inactive); with HCC 2998 it was > 10 µM (inactive); in the test with HCT-15, above 10 µM. Besides, the GI50 with Hs-578T is > 10 µM (inactive); with MCF7 it was > 7.78 µM (inactive); in the test on MDA-MB-231, > 10 µM (inactive); in the test on MOLT-4 it was 2.39 µM (inactive); with NCI-H226, > 10 µM (inactive); in the test with NCI-H460, > 10 µM (inactive). The GI50 is > 10 µM (inactive) with RXF 393; > 10 µM (inactive) in the test with SF-268; > 10 µM (inactive) in the test with SF-539; > 10 µM (inactive) in the test on SN12C; 3.55 µM (inactive) in the test with SW-620; > 10 µM (inactive) in the test with T47D.

With `CNC(=O)OCC1=C(COC(=O)NC)CN(c2ccccc2)C1`, the GI50 in the test with A549 is > 100 µM (inactive); with BT-549, > 100 µM (inactive); with CCRF-CEM, > 100 µM (inactive); with EKVX, > 100 µM (inactive); in the test on HCC 2998, > 100 µM (inactive); with HCT-15, above 100 µM. Also, the GI50 in the test with Hs-578T, with MCF7, with MDA-MB-231, in the test with MOLT-4, with NCI-H226 and in the test on NCI-H460 was > 100 µM (inactive) throughout. In addition, the GI50 in the test with RXF 393, in the test with SF-268, in the test with SF-539, in the test on SN12C, with SW-620 and with T47D was > 100 µM (inactive) each time.

`CC(=O)Nc1ccc2c3c(cc(O)c2c1)N(C(=O)CCCCC(=O)Nc1ccc2c4c(cc(O)c2c1)N(C(=O)OC(C)(C)C)CC4CCl)CC3CCl` (configuration not stated): the GI50 in the test on A549 was 7.62 µM (inactive); with BT-549, 1.77 µM (inactive); in the test on CCRF-CEM it was 0.193 µM (active); in the test with EKVX, 12.8 µM (inactive); with HCC 2998 it was 1.66 µM (inactive); in the test with HCT-15, 16.7 µM. For the same compound, the GI50 was 3.55 µM (inactive) in the test on Hs-578T; 0.373 µM (active) with MCF7; 3.8 µM (inactive) with MDA-MB-231; 0.302 µM (active) in the test with MOLT-4; 2.13 µM (inactive) in the test with NCI-H226; 1.83 µM (inactive) in the test with NCI-H460. The GI50 in the test on RXF 393 was 1.53 µM (inactive); in the test with SF-268 it was 0.804 µM (active); with SF-539, 2.25 µM (inactive); in the test with SN12C it was 2.38 µM (inactive); with SW-620, 2.82 µM (inactive); with T47D, 0.82 µM (active).

Turning to `COC(=O)/C=C\C(C#N)(C#N)/N=C/c1cccs1`, the GI50 is 22.6 µM (inactive) in the test with A549; 7.89 µM (inactive) with BT-549; 0.533 µM (active) in the test on CCRF-CEM; 9.77 µM (inactive) with EKVX; 18.9 µM (inactive) in the test with HCC 2998; 2.13 µM in the test on HCT-15. Also, the GI50 in the test on Hs-578T is 24.8 µM (inactive); in the test on MCF7 it was 2.01 µM (inactive); in the test with MDA-MB-231 it was 1.46 µM (inactive); with MOLT-4, 0.982 µM (active); in the test on NCI-H226, 7.53 µM (inactive); in the test with NCI-H460, 19.6 µM (inactive). In addition, the GI50 with RXF 393 was 2.51 µM (inactive); in the test on SF-268, 15 µM (inactive); in the test on SN12C, 14.7 µM (inactive); in the test on SW-620, 1.87 µM (inactive); in the test with T47D, 2.93 µM (inactive).

As to `O=C1Cc2cn[nH]c2-c2ccccc2N1`, the GI50 in the test on A549 is 38 µM (inactive); in the test with BT-549, 22.5 µM (inactive); in the test with CCRF-CEM it was 20.7 µM (inactive); with EKVX, 34.7 µM (inactive); in the test with HCC 2998, 26.2 µM (inactive); in the test on HCT-15, 23.8 µM. For the same compound, the GI50 in the test with Hs-578T was 37.9 µM (inactive); in the test with MCF7, 39 µM (inactive); in the test on MDA-MB-231, > 45.5 µM (inactive); in the test on MOLT-4 it was 20.1 µM (inactive); with NCI-H226, > 75.9 µM (inactive); in the test with NCI-H460, 24.2 µM (inactive). Moreover, the GI50 with RXF 393 is 28.2 µM (inactive); with SF-268 it was 41.1 µM (inactive); in the test on SF-539, 38.8 µM (inactive); with SN12C, > 44.4 µM (inactive); in the test with SW-620 it was 17.2 µM (inactive); in the test on T47D, 36 µM (inactive).

On to `FC(F)(F)c1ccc(Cc2nc3cc4ccccc4cc3[nH]2)cc1`, for which the GI50 in the test with A549 was > 100 µM (inactive); in the test with BT-549, > 100 µM (inactive); with CCRF-CEM, > 100 µM (inactive); in the test with EKVX it was > 100 µM (inactive); with HCC 2998, > 100 µM (inactive); in the test on HCT-15 it was above 100 µM. Besides, the GI50 is 95.7 µM (inactive) in the test with Hs-578T; 92.3 µM (inactive) in the test on MCF7; > 100 µM (inactive) with MDA-MB-231; > 100 µM (inactive) in the test with NCI-H226; > 100 µM (inactive) in the test with NCI-H460; 51.6 µM (inactive) with RXF 393. Further, the GI50 was > 100 µM (inactive) in the test with SF-268; > 100 µM (inactive) with SF-539; > 100 µM (inactive) in the test on SN12C; > 100 µM (inactive) in the test with SW-620; 39.9 µM (inactive) with T47D.

For the compound `COc1ccc(COCC[C@H](C)OC2OC(CO[Si](C)(C)C(C)(C)C)C(OC(=O)CCCN=[N+]=[N-])C(OC(=O)CCCN=[N+]=[N-])C2OC(=O)CCCN=[N+]=[N-])cc1` (some centres not stated), the GI50 is > 100 µM (inactive) with A549; 22.2 µM (inactive) in the test with BT-549; 17.5 µM (inactive) with CCRF-CEM; 33.2 µM (inactive) in the test with EKVX; 34.4 µM (inactive) in the test with HCC 2998; 28.4 µM in the test on HCT-15. Also, the GI50 in the test on Hs-578T is > 100 µM (inactive); in the test on MCF7 it was 25.9 µM (inactive); in the test with MDA-MB-231 it was > 100 µM (inactive); in the test with NCI-H226, 8.39 µM (inactive); with NCI-H460, 55.5 µM (inactive); in the test with RXF 393, 98.2 µM (inactive). Moreover, the GI50 in the test on SF-268 was 35.3 µM (inactive); in the test with SF-539, 27.5 µM (inactive); with SN12C, 78.3 µM (inactive); in the test on SW-620, > 100 µM (inactive); with T47D it was 31 µM (inactive).

Consider `CCOC(=O)C(NCc1ccc2c(c1)OCO2)(NC(=O)c1ccccc1)C(F)(F)F` (configuration not stated), for which the GI50 in the test with A549 is 71 µM (inactive); with BT-549, > 100 µM (inactive); with CCRF-CEM, 19.5 µM (inactive); in the test with EKVX, 86.1 µM (inactive); in the test on HCC 2998, > 100 µM (inactive); in the test on HCT-15, above 100 µM. The GI50 in the test on Hs-578T is > 100 µM (inactive); in the test with MCF7 it was 60.3 µM (inactive); in the test on MDA-MB-231 it was 64.4 µM (inactive); in the test on MOLT-4, 18 µM (inactive); with NCI-H226 it was > 100 µM (inactive); with RXF 393 it was > 100 µM (inactive). Moreover, the GI50 is > 100 µM (inactive) in the test with SF-268; > 100 µM (inactive) with SF-539; > 100 µM (inactive) with SN12C; > 100 µM (inactive) in the test with SW-620; 38.3 µM (inactive) in the test on T47D.

Take `CCOC(=O)c1c(N)sc2c1C(C(=O)OCC)CCC2` (configuration not stated): the GI50 in the test on A549 is > 100 µM (inactive); with BT-549, > 100 µM (inactive); with CCRF-CEM it was > 100 µM (inactive); in the test with EKVX it was 55.8 µM (inactive); with HCC 2998 it was > 100 µM (inactive); in the test with HCT-15 it was above 100 µM. The GI50 in the test with Hs-578T, in the test with MCF7, with MDA-MB-231, in the test with MOLT-4, in the test with NCI-H226 and in the test with NCI-H460 was > 100 µM (inactive) in each case. The GI50 in the test on RXF 393 was > 100 µM (inactive); with SN12C it was > 100 µM (inactive); in the test on SW-620, > 100 µM (inactive); in the test on T47D it was 66.5 µM (inactive).
